Assay results from US20110021471A1, “REDUCING Abeta42 LEVELS AND Abeta AGGREGATION” (priority 2007, published 2011).
Where two headings read alike, the source gives them in different places.

Experiments:
[1] = molecular target: T1, APP(C100)-Flag (Homo sapiens, UniProt P05067); experiment: Photoaffinity labelling of APP(C100)-Flag and competition; assay type: binding; settings: for competition of Fen-B labeling of C100Flag: Fen-B 10 μM, C100Flag 1 μM, competitor 100 μM
T1 construct: APP(C100)-Flag, comprising the 99 C-terminal residues of APP plus a methionine at the N-terminus; added methionine (N)
T1 sequence (P05067 672-770 limits assumed): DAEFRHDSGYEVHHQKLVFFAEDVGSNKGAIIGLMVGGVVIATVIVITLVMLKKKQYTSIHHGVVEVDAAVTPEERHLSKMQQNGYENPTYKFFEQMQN
Procedure: (§1) FIG. 1. […] The top panel is for anti-biotin staining; the middle panel is for anti-FLAG staining; and the bottom panel is an overlay of anti-biotin (red and anti-Flag green, LiCor Odyssey imaging). (E) Same samples as in D, but analyzed using an ELISA. Following crosslinking, C100Flag and N100 Flag were captured using anti-FLAG plate, and biotin incorporation was measured using streptavidin-HRP. […] Fen-B (50 μM) was crosslinked to Aβ (10 μM). Biotin labeling was measured following capture with an anti-Aβ1-16 antibody and detection with streptavidin-HRP.
(§2) Photoaffinity labelling. All experiments used the following general protocol. Samples (recombinant or synthetic peptides, cell lysates and membrane preparations) were exposed in borosilicate test tubes to ultraviolet light (350 nm) in a Rayonet Photoreactor R100 (RPR-3500 lamps, Southern New England Ultra Violet Company) in a cold room (4° C.) for 30 minutes or as otherwise noted. Crosslinked samples were analyzed by ELISA for biotin incorporation, or analyzed directly by SDS-PAGE (Criterion-XT, Bio-Rad), or after precipitation with streptavidin ultralink plus beads (Pierce). After immunblotting, proteins were detected using chemiluminesence (ECL Plus, GEHealthcare) or near-infrared fluorescence (LiCor Odyssey). Full-length APP and APP CTFs (CTF83, CTF99) were detected with CT20, a rabbit polyclonal antibody against the C-terminus of APP. Biotin was detected with an affinity-purified rabbit polyclonal antibody (Bethyl). Cell-based screens for amyloid-β modulation. Human H4 neuroglioma cells (American Type Culture Collection, ATCC) expressing wild-type APP695 protein or CTF105 fused to secreted alkaline phosphatase which is efficiently processed to APP CTFs (CTF83, CTF99) and produce high levels of amyloid-β, were used for the cell-based screens as previously described. Cells were incubated for 5-6 hours in the presence of the various compounds in Opti-Mem culture medium containing 1% fetal bovine serum. Compounds were dissolved in dimethylsulphoxide (DMSO; 0.5% final concentration) and diluted 200-fold. Media was analyzed for various amyloid-β species (40, 42 and total) using ELISAs as described herein. The EC50 values for changes in amyloid-β species were calculated by fitting sigmoid dose-response curves using nonlinear regression in Prism (GraphPad) and are shown as values±s.e.m. Statistical analysis. Data are presented as either percentage control or mean±s.e.m. Results were analyzed using Prism (Graph Pad) with t-tests or one-way analysis of variance analyses (ANOVAs) with Dunnett's post-hoc correction for comparison of multiple samples to a control. Statistical significance is shown as P,0.05 (one asterisk), P,0.01 (two asterisks) or P,0.001 (three asterisks).
The ability of a purified, recombinant Flag-tagged γ-secretase substrate derived from APP (APP(C100)-Flag, comprising the 99 C-terminal residues of APP plus a methionine at the N-terminus) to be labeled by Fen-B and Flurbi-BpB was tested.

[2] = molecular target: T2, γ-secretase (Homo sapiens, UniProt P49768); experiment: GSM activity of compounds that bind Aβ or Aβ amyloid (cell-based or cell-free γ-secretase assays, FIG. 12); settings: two doses (10 and 100 μM)
Procedure: A literature search was performed to identify compounds reported to bind to the Aβ peptide directly or amyloid. These candidates were initially tested in cell-based assays or cell-free in vitro γ-secretase assays at two doses (10 and 100 μM).
Finally, X-34 was tested for its ability to modulate Aβ42 amounts in an APP transgenic mouse (Tg2576).

[3] = tested on: Human H4 neuroglioma cells expressing wild-type APP695 protein or CTF105; experiment: Cell-based screens for amyloid-β modulation (H4 cells, ELISA); settings: for Aβ42 levels: H4 cells expressing APP
Text: Photoaffinity labelling. All experiments used the following general protocol. […] Cell-based screens for amyloid-β modulation. […] Statistical analysis.

[4] = tested on: H4Bri-C99 (CTF-3)
Procedure: FIG. 6. […] Parent GSMs and biotin tagged photoactivatable GSMs were evaluated for their effects on Aβ secreted from H4Bri-C99 (CTF-3). Cells were treated with compounds for 6 hours and Aβ measured by ELISA. […] Changes in Aβ (percent control)±s.e.m., n=3.
as §2

[5] = molecular target: amyloid-β peptides (Aβ1-40, Aβ1-36, Aβ1-28, Flag-Aβ25-36) (Homo sapiens, UniProt P05067); experiment: Photoaffinity labelling of amyloid-β peptides; assay type: binding
Procedure: as §1, §2
Because the putative binding region of GSMs is also found in full-length APP, labeling of both APP fragments in cells was assayed.

[6] = molecular target: T2, γ-secretase; experiment: Cell-free in vitro γ-secretase assay; assay type: biochemical; settings: for total Aβ production in cell-free γ-secretase assay / Aβ40 in cell-free γ-secretase assay: increasing doses
Procedure: FIG. 5. Fenofibrate-Biotin (Fen-B) is an Aβ42 raising GSM that labels cell-derived APP-CTF. (A) The effects of fenofibrate and fenofibrate-biotin (Fen-B) on Aβ production were investigated in a cell-free in vitro γ-secretase assay performed as described in the methods. […] Percent control Aβ species±s.e.m., n=2. (B) Fen-B labels APP-CTFs from cells lysates. CHAPSO solubilized membrane fractions from H4 APP-CTF-105-AP cells were irradiated (350 nm) in the presence of Fen-B (50 μM) for 30 minutes. Biotinylated material was precipitated with streptavidin overnight (SAv). Beads were washed (3×) and then incubated with XT sample buffer, heated to 95° C., run on 12% Criterion XT gels, and transferred to nitrocellulose membranes. Blots were probed for biotin (Bethyl) and APP (CT20). Excess drug (Fen-B) and unlableled APP-CTF is detected in the flow-through from the beads (unbound lane). Biotin bound to streptavdin (SAv) is detected by the anti-biotin antibody. APP-CTF-83 is pulled down in lane 2 and is reactive with anti-biotin and anti-APP (CT20).
Congo red (CR) and chrysamine G (CG), two of the most well characterized amyloid-β dyes, act as GSMs in cell-free γ-secretase assays.

[7] = tested on: H4 APPwt cells; experiment: Immunoprecipitation-mass spectrometry of media from H4 APPwt cells; assay type: cell-based, human
Procedure: FIG. 14. Amyloid binding compounds alter the cleavage of Aβ similar to other established γ-secretase modulators Immunoprecipitation-mass spectrometry studies were conducted on media from H4 APPwt cells grown in the presence of test compounds for 16 hours. Conditions were: control (DMSO, 0.5%), sulindac sulfide (SS; 25 μM), chrysamine g (CG; 25 μM), and X-34 (25 μM). SS was included as a control GSM known to reduce Aβ42 and increase Aβ38. Spectra shown are representative of two experiments with 2-3 replicates each. Identified Aβ peptides based on calculated mass (m/z) are indicated above the peaks.

[8] = molecular target: T3, APP-CTF (Homo sapiens, UniProt P05067); experiment: Photoaffinity labelling of APP and APP CTF in H4 cell membrane fractions and competition; assay type: binding; settings: for competition of APP-CTF labeling by Fen-B and Flurbi-BpB: photoprobe 25 μM, competitor 200 μM
T3 construct: this protein was designated α-secretase-derived APP CTF (CTF83) on the basis of molecular weight; expressed in transfected cells
T3 sequence (P05067 688-770 limits assumed): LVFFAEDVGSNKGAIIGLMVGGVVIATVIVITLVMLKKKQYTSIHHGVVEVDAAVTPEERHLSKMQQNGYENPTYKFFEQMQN
Procedure: Photoaffinity labelling. All experiments used the following general protocol. Samples (recombinant or synthetic peptides, cell lysates and membrane preparations) were exposed in borosilicate test tubes to ultraviolet light (350 nm) in a Rayonet Photoreactor R100 (RPR-3500 lamps, Southern New England Ultra Violet Company) in a cold room (4° C.) for 30 minutes or as otherwise noted. Crosslinked samples were analyzed by ELISA for biotin incorporation, or analyzed directly by SDS-PAGE (Criterion-XT, Bio-Rad), or after precipitation with streptavidin ultralink plus beads (Pierce). After immunblotting, proteins were detected using chemiluminesence (ECL Plus, GEHealthcare) or near-infrared fluorescence (LiCor Odyssey). Full-length APP and APP CTFs (CTF83, CTF99) were detected with CT20, a rabbit polyclonal antibody against the C-terminus of APP. Biotin was detected with an affinity-purified rabbit polyclonal antibody (Bethyl). Cell-based screens for amyloid-β modulation.

## CC1=C(CC(=O)O)c2cc(F)ccc2/C1=C\c1ccc(S(C)(=O)=O)cc1 [sulindac sulfone]
[1]
  competition of Fen-B labeling of C100Flag: not

## Clc1ccc(C(c2ccc(Cl)cc2)n2cc[n+](CC(OCc3ccc(Cl)cc3Cl)c3ccc(Cl)cc3Cl)c2)cc1 (stereo not drawn) [calmidazolium]
[2]
  GSM activity: Aβ42-raising

## COc1ccc2[nH]cc(CCNC(C)=O)c2c1 [melatonin]
[2]
  GSM activity: did not act as GSMs

## O=S(=O)(O)c1cccc2c(-c3ccc(Nc4ccccc4)c4c(S(=O)(=O)O)cccc34)ccc(Nc3ccccc3)c12 [Bis-ANS, 4,49-dianilino-1,19-binaphthyl-5,59-disulphonic acid]
[3]
  Aβ42 levels: decrease
[2]
  GSM activity: Aβ42-lowering

## O=C(c1ccccc1)c1ccccc1 [benzophenone]
[4]; 6 hours
  Aβ42 (direction of change): increased Aβ42

## CNc1ccc(-c2nc3ccccc3s2)cc1 [BTA-1]
[2]
  GSM activity: did not act as GSMs

## O=C(CCCC[C@H]1SC[C@H]2NC(=O)N[C@H]21)NCCNC(=O)COc1ccc(C(=O)c2ccccc2)cc1 [BpB, N-(2-(2-(4-benzoylphenoxy)acetamido)ethyl)-5-((3aR,4R,6aS)-2-oxohexahydro-1Hthieno[3,4-d]imidazol-4-yl)pentanamide]
[5]
  labeling of Aβ1-36: minor labelling
[4]; 6 hours
  Aβ42 (direction of change): increased Aβ42

## Nc1c(/N=N/c2ccc(-c3ccc(/N=N/c4cc(S(=O)(=O)O)c5ccccc5c4N)cc3)cc2)cc(S(=O)(=O)O)c2ccccc12 [Congo red]
[6]
  Aβ42 in cell-free γ-secretase assay: lowered Aβ42 selectively
  total Aβ production in cell-free γ-secretase assay: without decreasing total Aβ production
[6]; listed as CR
  Aβ42 in cell-free γ-secretase assay: lowered Aβ42 levels

## NH2-FEGKF-CONH2 [I1]
[3]
  total amyloid-β amounts: without lowering total amyloid-β amounts
  Aβ42 levels: elevated Aβ42 production

## CSc1ccc(/C=C2/C(C)=C(CC(=O)O)c3cc(F)ccc32)cc1 [sulindac sulfide]
[7]; 25 μM, 16 hours
  levels of Aβ42 (IP-MS): consistently decrease levels of Aβ42
[6]
  Aβ42 in cell-free γ-secretase assay: lowered Aβ42 levels
  Aβ40 in cell-free γ-secretase assay: lowered Aβ40 at higher doses
  total Aβ production in cell-free γ-secretase assay: without decreasing total Aβ production
[8]
  competition of APP-CTF labeling by Fen-B and Flurbi-BpB: decreases labeling of APP-CTF
[8]; photoprobes 50 μM, data not shown
  competition of FL-APP and APP CTF labeling by Fen-B and Flurbi-BpB: prevents labeling of FL-APP and APP CTF

## CC(=O)Oc1ccccc1C(=O)O [aspirin]
[1]
  competition of Fen-B labeling of C100Flag: did not compete

## O=C(O)CCCC[C@@H]1SC[C@@H]2NC(=O)N[C@@H]21 [Biotin]
[4]; 6 hours
  Aβ levels: no effect

## COc1ccc2cc([C@H](C)C(=O)O)ccc2c1 [naproxen]
[1]
  competition of Fen-B labeling of C100Flag: did not compete

## O=C1NC(=O)c2cc(Nc3ccccc3)c(Nc3ccccc3)cc21 [DAPH, 4,5-dianilinophthalimide]
[3]
  Aβ42 levels: selectively increase
[2]
  GSM activity: Aβ42-raising

## CC(C(=O)O)c1ccc(-c2ccc(NC(=O)COc3ccc(C(=O)c4ccc(OCC(=O)NCCNC(=O)CCCC[C@H]5SC[C@H]6NC(=O)N[C@H]65)cc4)cc3)cc2)c(F)c1 (stereo in doubt) [Flurbi-BpB, 2-(2-fluoro-4′-(2-(4-(4-(2-oxo-2-(2-(5-((3aR,4R,6aS)-2-oxohexahydro-1H-thieno[3,4-d]imidazol-4 yl)pentanamido)ethylamino)ethoxy)benzoyl)phenoxy)acetamido)biphenyl-4-yl)propanoic acid]
[5]
  labeling of Aβ1-36: labeled
  labeling of Flag-tagged Aβ25-36: preferentially label
[8]; microsomal membrane fractions from H4 cells expressing wild-type APP
  labeling of full-length APP and APP CTFs: labeled full-length APP and APP CTFs
[4]; 6 hours
  Aβ42 (direction of change): lowered Aβ42
[1]
  labeling of APP(C100)-Flag: label a recombinant APP c-secretase substrate (APP(C100)-Flag) with similar potency

## CC(C)OC(=O)C(C)(C)Oc1ccc(C(=O)c2ccc(Cl)cc2)cc1 [fenofibrate]
[4]; 33 μM, 6 hours
  Aβ42 increase: 300%
[4]; human, 6 h
  Toxicity, based on cell morphology and XTT assay: noted at higher concentrations (150, 200 μM)

## O=C(O)c1cc(/N=N/c2ccc(-c3ccc(/N=N/c4ccc(O)c(C(=O)O)c4)cc3)cc2)ccc1O [Chrysamine G]
[7]
  shorter amyloid-β (IP-MS): increased amounts of shorter amyloid-β
[7]; 25 μM, 16 hours
  Aβ33 levels (IP-MS): raise Aβ33 levels more effectively than SS
  levels of Aβ42 (IP-MS): consistently decrease levels of Aβ42
[3]
  Aβ42 levels: decrease
[6]
  Aβ42 in cell-free γ-secretase assay: lowered Aβ42 selectively
  Aβ40 in cell-free γ-secretase assay: lowered Aβ40 at higher doses
  total Aβ production in cell-free γ-secretase assay: without decreasing total Aβ production
[6]; listed as CG
  Aβ42 in cell-free γ-secretase assay: lowered Aβ42 levels

## Aβ28-36: synthetic peptide of the putative GSM binding region (KGAIIGLMV; Amyloid-beta protein 42; UniProt P05067 699-707, looked up, fragment)
[5]; competitor 100 μM, FLAG-Aβ-25-36 10 μM
  competition for labeling of FLAG-Aβ-25-36 by Fen-B or Flurbi-BpB: competes
[8]
  competition of APP-CTF labeling by Fen-B and Flurbi-BpB: decreases labeling of APP-CTF
